From ChEMBL document CHEMBL3352799, “Arylazolyl(azinyl)thioacetanilides. Part 16: Structure-based bioisosterism design, synthesis and biological evaluation of novel pyrimidinylthioacetanilides as potent HIV-1 inhibitors” (Bioorg Med Chem, 2014)
Active and inactive are the calls of the source. No cut-off for these calls is given here.

Key:
[1] = Cytotoxicity against human MT4 cells by MTT assay; format: cell-based
[2] = test system: Human immunodeficiency virus 1; test: Antiviral activity against HIV1 RES056 expressing reverse transcriptase K103N/Y181C double mutant infected in human MT4 cells assessed as reduction in virus-induced cytopathogenicity by MTT assay; format: functional, organism-based; conditions: Human immunodeficiency virus 1, RES056, MT4
[3] = Selectivity index, ratio of CC50 for human MT4 cells to EC50 for HIV1 RES056 expressing reverse transcriptase K103N/Y181C double mutant infected in human MT4 cells; format: toxicity, cell-based; conditions: read-out: Ratio CC50/EC50
[4] = test system: Human immunodeficiency virus 1; test: Antiviral activity against HIV1 3B infected in human MT4 cells assessed as reduction in virus-induced cytopathogenicity by MTT assay; format: functional, organism-based; conditions: Human immunodeficiency virus 1, 3B
[5] = Selectivity index, ratio of CC50 for human MT4 cells to EC50 for HIV1 3B infected in human MT4 cells; format: toxicity, cell-based; conditions: read-out: Ratio CC50/EC50
[6] = test system: Human immunodeficiency virus 2; test: Antiviral activity against HIV2 ROD infected in human MT4 cells assessed as reduction in virus-induced cytopathogenicity by MTT assay; format: functional, organism-based; conditions: ISOLATE ROD
[7] = molecular target: Human immunodeficiency virus type 1 reverse transcriptase (Human immunodeficiency virus 1, UniProt Q72547); test: Inhibition of HIV1 reverse transcriptase assessed as inhibition of biotin-dUTP incorporation using hybrid poly (A).oligo (dT)15 template primer incubated for 1 hr at 37 degC by ELISA method

| SMILES | CC50 [1] [µM] | EC50 [2] [µM] | selectivity ratio [3] | EC50 [4] [µM] | selectivity ratio [5] | inhibition [6] | IC50 [7] [µM] |
| --- | --- | --- | --- | --- | --- | --- | --- |
| Cc1ccnc2c1NC(=O)c1cccnc1N2C1CC1 [NEVIRAPINE] | > 14.4 | > 14.4 | – | – | – | – | – |
| CC(C)Nc1cccnc1N1CCN(C(=O)c2cc3cc(NS(C)(=O)=O)ccc3[nH]2)CC1 [DELAVIRDINE] | > 43.8 | > 43.8 | 1 | 0.49 | > 89 | – | – |
| COC(=O)c1ccc(NC(=O)CSc2ncncc2-c2cccc3ccccc23)c(Cl)c1 | 154 | > 154 | < 1 | 2.84 | 54 | inactive | – |
| O=C(CSc1ncncc1-c1cccc2ccccc12)Nc1ccc(C(=O)NO)cc1Cl | 4.8 | > 4.8 | < 1 | 0.63 | 8 | inactive | – |
| COc1ccc(Cn2cc(CSc3ncncc3-c3cccc4ccccc34)nn2)cc1 | 31.2 | > 31.2 | < 1 | > 31.1 | < 1 | inactive | – |
| CONC(=O)c1ccc(NC(=O)CSc2ncncc2-c2cccc3ccccc23)c(Cl)c1 | 131 | > 131 | < 1 | 0.75 | 175 | inactive | – |
| O=C(O)c1ccc(-n2cc(CSc3ncncc3-c3cccc4ccccc34)nn2)cc1 | 95.9 | > 95.9 | < 1 | > 95.9 | < 1 | inactive | – |
| O=C(CSc1ncncc1-c1cccc2ccccc12)Nc1ccc(C(=O)O)nc1Cl | 127 | > 127 | < 1 | 24.2 | 5 | inactive | – |
| O=C1Nc2ccc(Cl)cc2[C@@](C#CC2CC2)(C(F)(F)F)O1 [EFAVIRENZ] | > 6.3 | 0.23 | > 27 | 0.0053 | > 1180 | – | – |
| O=C(CSc1nnccc1-c1cccc2ccccc12)Nc1ccccc1[N+](=O)[O-] | – | – | – | – | 2150 | – | – |
| CCOC(=O)c1ccc(NC(=O)CSc2ncncc2-c2cccc3ccccc23)c(Br)c1 | 211 | > 211 | < 1 | 4.46 | 47 | inactive | – |
| CCOC(=O)CNC(=O)c1ccc(NC(=O)CSc2ncncc2-c2cccc3ccccc23)c(Cl)c1 | 105 | 30.6 | 3 | 0.15 | 684 | inactive | 1.31 |
| Brc1ccccc1Cn1cc(CSc2ncncc2-c2cccc3ccccc23)nn1 | 39.4 | > 39.4 | < 1 | > 39.4 | < 1 | inactive | – |
| O=C(CSc1nccnc1-c1ccccc1Cl)Nc1ccccc1[N+](=O)[O-] | – | – | – | – | 23 | – | – |
| NS(=O)(=O)c1ccc(NC(=O)CSc2ncncc2-c2cccc3ccccc23)c(Br)c1 | 24.1 | 3.9 | 6 | 0.18 | 132 | inactive | – |
| CCOC(=O)C(C)NC(=O)c1ccc(NC(=O)CSc2ncncc2-c2cccc3ccccc23)c(Cl)c1 (configuration not stated) | 35.6 | > 35.6 | < 1 | 2.76 | 13 | inactive | – |
| O=C(CSc1ncncc1-c1cccc2ccccc12)Nc1ccccc1[N+](=O)[O-] | 22.5 | > 22.5 | < 1 | 0.91 | 25 | inactive | – |
| COC(=O)c1ccc(NC(=O)CSc2ncncc2-c2cccc3ccccc23)c([N+](=O)[O-])c1 | ≥ 196 | > 196 | 1 | 3.58 | ≥ 55 | inactive | – |
| CCOC(=O)c1ccc(NC(=O)CSc2ncncc2-c2cccc3ccccc23)c(Cl)c1 | 195 | > 195 | < 1 | 4.55 | 43 | inactive | – |
| NS(=O)(=O)c1ccc(NC(=O)CSc2nncnc2-c2cccc3ccccc23)c(Br)c1 | – | – | – | – | 1290 | – | – |
| COC(=O)c1ccc(NC(=O)CSc2ncncc2-c2cccc3ccccc23)c(Br)c1 | 168 | > 168 | < 1 | 2.42 | 69 | inactive | – |
| O=C(CSc1ncncc1-c1cccc2ccccc12)Nc1ccc(C(=O)O)cc1Cl | 108 | > 108 | < 1 | 8.13 | 13 | inactive | – |
